Measurements taken from PubChem BioAssay AID1996.
In brackets after ≈: the same amount, converted by molar mass.

Conditions: buffer; pH 7.4; 200.0 µM

| SMILES | solubility kinetic [µg/mL] |
| --- | --- |
| COc1ccc2c(c1)-c1nc(/N=C/c3ccc(O)cc3)sc1CC2 | 34 (≈ 101 µM) |
| Cl.Oc1ccc(Nc2ncnc3c2oc2ccccc23)cc1 | 0.7 |
| COc1ccc(C(C)NC(=S)NCc2ccc(F)cc2)cc1 (stereo not given) | 4.4 (≈ 13.8 µM) |
| O=C(CN1C(=O)C2CC=CCC2C1=O)Nc1nc(-c2ccc(F)c(F)c2)cs1 (stereo not given) | 4.8 (≈ 11.9 µM) |
| O=C(N1CCCC1)C12CC3CC(CC(Cl)(C3)C1)C2 | 37.9 (≈ 142 µM) |
| O=C(COC(=O)C1CC2C=CC1C2)Nc1ccccc1F (stereo not given) | > 43.4 |
| O=C(CS(=O)(=O)c1ccccc1)Nc1ccc(Cl)cn1 | > 46.6 |
| CC1CC(C)CN(C(=O)CCNC(=O)c2ccccc2Cl)C1 (stereo not given) | 47.7 (≈ 148 µM) |
| Cc1ccc(N2C(=O)c3cccc([N+](=O)[O-])c3C2=O)cc1C | 23.3 (≈ 78.6 µM) |
| CC(Sc1nncn1C)C(=O)Nc1ccc2ccccc2c1 (stereo not given) | > 46.9 |
| Cc1cccc(Nc2nc(CC(=O)O)cs2)c1 | 24.6 (≈ 99.1 µM) |
| Cc1c(C)n(O)c2ccc3nonc3c12 | > 30.5 |
| CCN(CC)CCCN=C(C)C1=C(O)c2ccccc2C1=O | > 45.1 |
| Cl.c1ccc(CN2CCNCC2)nc1 | 30.1 |
| CCOC(=O)c1cncc(O)c1 | > 25.1 |
| O=C1Nc2ccccc2/C1=C/c1nc2ccccc2c(=O)n1-c1ccc(O)cc1 | 1.9 (≈ 4.98 µM) |
| Cc1ccc(S(=O)(=O)Nc2ccsc2C#N)cc1 | > 41.8 |
| CC(CC(=O)Nc1ccc2c(c1)OCO2)c1ccccc1 (stereo not given) | 38.5 (≈ 136 µM) |
| Cc1cccc(C)c1OCCN1C(=O)NC(C)(c2ccccc2)C1=O (stereo not given) | 5 (≈ 14.8 µM) |

| SMILES | solubility kinetic [µg/mL] |
| --- | --- |
| O=C(NNC(=O)C1CCC1)c1ccccc1 | > 32.7 |
| CCOc1ccc(N/C=C/C(=O)c2ccc(OC)cc2)cc1 | < 0.6 |
| N#Cc1ccc(N2CCN(C(=O)c3cccs3)CC2)c(F)c1 | 40.1 (≈ 127 µM) |
| O=C(O)c1ccc(S(=O)(=O)NCc2ccc3c(c2)OCO3)cc1 | > 50.3 |
| O=C(CSCc1ccc(Br)cc1)NCc1ccccn1 | > 52.7 |
| Cc1cc(C)cc(NC(=O)NCc2ccccn2)c1 | > 38.3 |
| O=C(Nc1ccccc1C(=O)N1CCCCC1)c1cccs1 | > 47.2 |
| O=C(Nc1cc([N+](=O)[O-])ccc1N1CCCC1)c1ccccc1 | 1.5 (≈ 4.82 µM) |
| CC(C)CCNC(=O)C(=O)Nc1ccccc1 | 2.6 (≈ 11.1 µM) |
| COc1ccc2c(c1)c(C(=O)O)c(C)n2CCc1ccc(OC)c(OC)c1 | > 55.4 |
| Cc1ccc(NC(=O)C2CC(Cl)=CCC2C(=O)O)c([N+](=O)[O-])c1 (stereo not given) | > 50.8 |
| Cc1nn(CCCC(=O)O)c(C)c1[N+](=O)[O-] | > 34.1 |
| COc1c(C)cccc1C(=O)NCc1ccc2c(c1)OCO2 | > 44.9 |
| Cn1c(C2CCCCC2)nc2ccccc21 | > 32.1 |
| CC1CCCC(C)N1C(=O)COC(=O)/C=C/c1ccc(Br)o1 (stereo not given) | 29.8 (≈ 80.5 µM) |
| O=C(CCc1nnc(CCC2CCCCC2)o1)NCc1ccon1 | > 49.9 |
| CNc1ccc(Cl)nn1 | > 21.5 |
| O=C(CCNC(=O)c1ccccc1Cl)NCc1ccco1 | > 46 |
| CC1(c2ccccc2Br)NC(=O)N(CC(=O)N2CCc3ccccc3C2)C1=O (stereo not given) | 8.1 (≈ 18.3 µM) |

| SMILES | solubility kinetic [µg/mL] |
| --- | --- |
| COc1ccc(S(=O)(=O)N2CCCCC2)cc1NC(=O)COC(=O)c1ccco1 | 5.8 (≈ 13.7 µM) |
| CCc1ccc(N(C(C)=O)c2nc(CCl)cs2)cc1 | > 44.2 |
| Cc1ccc(CNc2nc(-c3cccnc3)nc3ccccc23)cc1 | 2.5 (≈ 7.66 µM) |
| COc1ccccc1NC(=O)c1ccc([N+](=O)[O-])o1 | 36.8 (≈ 140 µM) |
| Cc1ccc2nc(-c3ccccn3)[nH]c2c1.Cl | > 36.9 |
| CCC(=O)c1c(NC(C)C)cc(C)oc1=O | > 33.5 |
| Cc1ccc(N(CCC#N)C(=O)COC(=O)c2ccccn2)cc1 | > 48.5 |
| O=C(NC1CCN(C(=O)Nc2cccc(Cl)c2)CC1)c1ccco1 | 46.1 (≈ 133 µM) |
| O=C(NNC1=NS(=O)(=O)c2ccccc21)c1ccccc1 | > 45.2 |
| Cc1ccc(S(=O)(=O)NCCC(=O)NCCc2ccc(S(N)(=O)=O)cc2)cc1C | > 65.9 |
| Cc1nc(S/C(C(=O)O)=C2/C(=O)Nc3ccccc32)n[nH]1 | > 45.3 |
| Cc1cccc(N2C(=O)C3C4C=CC(C5CC45)C3C2=O)n1 (stereo not given) | 36.5 (≈ 130 µM) |
| S=C1NCN(Cc2ccccc2)CN1 | > 31.1 |
| Cn1c(C(=O)N[C@@H](Cc2ccccc2)C(=O)O)cc2cc(Cl)ccc21 | > 53.5 |
| CCOc1ccc(OCC)c(S(=O)(=O)n2ccnc2C)c1 | 19.7 (≈ 63.5 µM) |
| CN1CCC(CO)(Cc2ccccc2)CC1 | 28.6 (≈ 130 µM) |
| CC(C)(C)C(=O)/C=C1\SCC(=O)N1CC(=O)N1CCN(c2ccccc2)CC1 | 33.7 (≈ 83.9 µM) |
| Cn1c(N2CCOCC2)c(C=O)c2ccccc21 | > 36.6 |

Results, then the compound that gave them:

| solubility kinetic [µg/mL] | SMILES |
| --- | --- |
| 22.1 (≈ 87.9 µM) | OCCCc1cn(-c2ccccc2)c2ccccc12 |
| 1 (≈ 2.98 µM) | Cc1cccc(OCc2nc(-c3ccc(Br)o3)no2)c1 |
| 3.6 (≈ 7.62 µM) | Cc1ccc(NC(=O)c2oc3ccccc3c2COC(C)C)cc1S(=O)(=O)N1CCOCC1 |
| 25.8 (≈ 103 µM) | O=C(NC1CCCCCCC1)c1ccc(F)cc1 |
| > 48.7 | O=C(O)/C=C/C(=O)Nc1nc(-c2ccc3ccccc3c2)cs1 |
| > 48.2 | O=C(CNC(=O)C1CCCCC1)OCC(=O)c1ccc(F)cc1 |
| > 46.9 | Cc1ccc(C)c(NC(=O)CN(C)C(=O)/C=C/c2ccco2)c1 |
| 37.4 (≈ 136 µM) | CC(=O)Nc1cccc(C(=O)Nc2nc(C)cs2)c1 |
| 34.8 (≈ 101 µM) | CC(C)OC(=O)c1ccc(COC(=O)CNC(=O)c2ccco2)cc1 |
| 22.5 (≈ 95.6 µM) | Cc1cc(C)cc(OCCN2CCOCC2)c1 |
| 6.8 (≈ 26.9 µM) | CSc1nccc(Oc2ccccc2Cl)n1 |
| 0.3 (≈ 1.06 µM) | N=c1oc2ccccc2cc1C(=O)Nc1cccc(F)c1 |
| 5.3 (≈ 23.7 µM) | COc1ccc2c(C(=O)CCl)c[nH]c2c1 |
| > 37.4 | COc1ccc(N)cc1NC(=O)CN1CCCC1 |
| 39.8 (≈ 130 µM) | Cc1cc(C)nc(NC(=O)c2cccc(Br)c2)n1 |
| 0.4 | COc1ccccc1Nc1nc(NCc2ccco2)c2ccccc2n1.Cl |
| 44.5 (≈ 130 µM) | CCCCN(CC)C(=O)c1cc2c(=O)n3cccc(C)c3nc2s1 |
| 40.4 (≈ 123 µM) | COc1ccc(OC)c(/C=C(\C)C(=O)c2c(C)cc(C)[nH]c2=O)c1 |
| < 0.7 | Cc1ccc(C(=O)N2C(=O)C(c3ccccc3)Oc3ccccc32)cc1 (stereo not given) |
| > 52 | O=C(NCc1ccccc1Cl)C1CCN(C(=O)c2ccco2)CC1 |
| 22.2 (≈ 77.3 µM) | CCOC(=O)c1ccc(NC(=O)C2CC3CCC2C3)cc1 (stereo not given) |
| 1.1 (≈ 4.34 µM) | COc1ccc(-c2nc(-c3ccncc3)no2)cc1 |

| solubility kinetic [µg/mL] | SMILES |
| --- | --- |
| 12 (≈ 36 µM) | O=C(CCCC(=O)NC1CCCCC1)Nc1ccc([N+](=O)[O-])cc1 |
| 47.4 (≈ 140 µM) | CC(C)CCNCC(O)CON=C1c2ccccc2-c2ccccc21 (stereo not given) |
| 9.1 (≈ 28.7 µM) | O=C(CCn1c(=S)[nH]c2ccccc2c1=O)N1CCCCC1 |
| 1.4 (≈ 3.99 µM) | Cn1c(=O)c2sccc2n(Cc2cccc(Br)c2)c1=O |
| > 38 | COCC(C)NC(=O)c1cc(OC)cc(OC)c1 (stereo not given) |
| 35.8 (≈ 103 µM) | Cc1nc(/C(N)=N/OC(=O)c2ccccc2Cl)c(C(F)(F)F)o1 |
| 47.1 (≈ 137 µM) | Cc1nc(N2CCOCC2)[nH]c(=O)c1C(O)C(Cl)(Cl)Cl (stereo not given) |
| 11.3 (≈ 33.1 µM) | S=C(NCc1ccco1)N1CCC(c2nc3ccccc3o2)CC1 |
| > 39.7 | COC(=O)c1ccc(NC(=S)N2CCCC2)cc1 |
| 5 (≈ 14.8 µM) | Cc1ccc(NC(=O)C2CCCN2C(=O)NCc2ccccc2)cc1 (stereo not given) |
| 0.4 (≈ 1.35 µM) | COc1cccc(/C=C/c2nc(C#N)c(NCC(C)C)o2)c1 |
| < 0.6 | CCOc1ccc(/C=C/C(=O)NC2CCCCC2)cc1 |
| > 50.3 | N#C/C(=C\c1ccc(O)c(Br)c1)C(=O)N1CCCCC1 |
| 37.4 (≈ 124 µM) | CSc1cccc(NC(C)C(=O)NCc2ccccc2)c1 (stereo not given) |
| < 1 | COC(=O)C1=C(C(=O)OC)SC(=C2C(=S)C(C)(C)N(C(=O)C(C)C)c3ccccc32)S1 |
| 0.4 (≈ 1.18 µM) | COc1ccc(OC2CCN(C(=O)Nc3ccc(C)cc3)CC2)cc1 |
| 13.1 (≈ 43.6 µM) | O=C(Cc1cccs1)NCc1ccc(Cl)cc1Cl |
| 3 (≈ 9.16 µM) | CCOc1ccc(NC(=O)CCC(=O)c2ccc(OC)cc2)cc1 |
| 39.9 (≈ 136 µM) | Cc1ccc(C)c(NC(=O)CSc2nc(C)cs2)c1 |
| 24.2 (≈ 87.3 µM) | Cc1cc(SCc2ccc([N+](=O)[O-])cc2)nc(=O)[nH]1 |
| < 0.4 | CN1C(=O)/C(=C/c2cc3c(cc2Br)OCO3)NC1=S |
| 8 (≈ 24.1 µM) | N#C/C(=C\c1cccnc1)C(=O)Nc1ccc(SC(F)F)cc1 |

| solubility kinetic [µg/mL] | SMILES |
| --- | --- |
| > 51 | O=C(CSc1cccc[n+]1[O-])Nc1cc(Cl)ccc1[N+](=O)[O-] |
| > 55.6 | O=C(O)CCC(=O)N(Cc1ccco1)C1CC(=O)N(c2ccccc2)C1=O (stereo not given) |
| > 39.2 | N#Cc1ccc(OCC(=O)NC2=NCCS2)cc1 |
| 36.8 (≈ 109 µM) | CC(=O)N1CCN(c2ccc(NC(=O)c3ccccc3C)cc2)CC1 |
| 1.9 (≈ 5.8 µM) | Cc1ccc2c(CN(C)Cc3ccc(Cl)cc3)cc(=O)oc2c1 |
| > 33.2 | Cc1ccc(CC(=O)NCCC(=O)O)cc1 |
| < 0.3 | O=C(Nc1nc(-c2ccc(Br)cc2)cs1)c1cccnc1 |
| 0.7 (≈ 2.23 µM) | O=C(Nc1ccc(Cl)cc1)Nc1ccc(-c2cnco2)cc1 |
| > 42.8 | CCCn1cnc2cc(NC(=O)c3cccs3)ccc21 |
| > 49.4 | OC1(c2ccc3c(c2)OCO3)CCN(Cc2ccc(F)cc2)CC1 |
| 3 (≈ 6.46 µM) | C=CCn1c(SCC(=O)Nc2cccc(S(N)(=O)=O)c2)nc2sc(C)c(C)c2c1=O |
| 50.4 (≈ 150 µM) | O=C(C1CCN(S(=O)(=O)c2ccccc2)CC1)N1CCCCC1 |
| 54.9 (≈ 138 µM) | CCC(=O)OCCNc1cc(SCCC(=O)OC)c2nonc2c1[N+](=O)[O-] |
| 42.2 (≈ 140 µM) | COc1cccc(OC)c1C(=O)O/N=C(\N)c1ccncc1 |
| 51.8 (≈ 147 µM) | O=C(NCCCNC(=O)c1ccc(Cl)cc1Cl)c1ccccn1 |
| > 52.2 | O=C(COc1ccccc1Cl)NCCCNC(=O)c1cccnc1 |
| > 39.4 | CN1CCOCCOCCOCCN(C)C1=S |
| > 74.8 | O=C(COC(=O)[C@@H]1CC(O)CN1S(=O)(=O)c1ccc2c(c1)OCCO2)Nc1cc(F)ccc1F (stereo not given in full) |
| 24.3 (≈ 78.4 µM) | CCc1ccccc1S(=O)(=O)c1c(C)cc(C)nc1Cl |
| 31.5 (≈ 137 µM) | Cc1cc(C)c(OCCn2ccnc2)c(C)c1 |
